Columns and labels:
Type in all cases: cell-based
MCF7 cells = test: Anti-proliferation (viability) of MCF7 cells (Table 7, FIG. 2B); conditions: Homo sapiens, MCF7, MCF7 cells, 3-6 days, 10-point serial dilution; read-out: GI IC50 in MCF-7
CDK4 = CDK4 (Homo sapiens, UniProt P11802+Q16531); test: CDK4 percentage degradation in Calu-1 cells (Table 6); set-up: Cells that express cyclin D1-3 and CDK4/6 proteins were treated with heterobifunctional compounds; endogenous in cells; host or cells: Calu-1; conditions: 16 hours; for inhibition at 0.04 µM: 40 nM; for inhibition at 0.2 µM: 200 nM
Chain of CDK4 (P11802 2-303 limits assumed): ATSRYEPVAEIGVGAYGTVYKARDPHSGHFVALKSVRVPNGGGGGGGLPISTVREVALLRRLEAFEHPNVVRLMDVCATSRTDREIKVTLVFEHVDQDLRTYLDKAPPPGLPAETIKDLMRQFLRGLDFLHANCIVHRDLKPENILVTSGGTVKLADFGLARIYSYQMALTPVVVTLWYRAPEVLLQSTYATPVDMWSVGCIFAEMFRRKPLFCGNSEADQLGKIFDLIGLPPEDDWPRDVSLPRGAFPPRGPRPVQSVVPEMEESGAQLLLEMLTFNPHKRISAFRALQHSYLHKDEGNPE
Chain of CDK4 (P24385 whole entry partner): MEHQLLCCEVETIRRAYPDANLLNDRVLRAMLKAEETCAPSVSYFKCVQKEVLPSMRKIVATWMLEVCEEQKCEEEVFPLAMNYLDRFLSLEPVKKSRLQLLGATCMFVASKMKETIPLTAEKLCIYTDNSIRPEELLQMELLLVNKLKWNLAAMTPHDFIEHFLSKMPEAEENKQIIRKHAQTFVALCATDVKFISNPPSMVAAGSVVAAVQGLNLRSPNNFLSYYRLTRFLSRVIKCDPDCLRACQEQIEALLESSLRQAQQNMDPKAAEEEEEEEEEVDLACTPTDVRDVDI
Chain of CDK4 (Q16531 2-1140 limits assumed): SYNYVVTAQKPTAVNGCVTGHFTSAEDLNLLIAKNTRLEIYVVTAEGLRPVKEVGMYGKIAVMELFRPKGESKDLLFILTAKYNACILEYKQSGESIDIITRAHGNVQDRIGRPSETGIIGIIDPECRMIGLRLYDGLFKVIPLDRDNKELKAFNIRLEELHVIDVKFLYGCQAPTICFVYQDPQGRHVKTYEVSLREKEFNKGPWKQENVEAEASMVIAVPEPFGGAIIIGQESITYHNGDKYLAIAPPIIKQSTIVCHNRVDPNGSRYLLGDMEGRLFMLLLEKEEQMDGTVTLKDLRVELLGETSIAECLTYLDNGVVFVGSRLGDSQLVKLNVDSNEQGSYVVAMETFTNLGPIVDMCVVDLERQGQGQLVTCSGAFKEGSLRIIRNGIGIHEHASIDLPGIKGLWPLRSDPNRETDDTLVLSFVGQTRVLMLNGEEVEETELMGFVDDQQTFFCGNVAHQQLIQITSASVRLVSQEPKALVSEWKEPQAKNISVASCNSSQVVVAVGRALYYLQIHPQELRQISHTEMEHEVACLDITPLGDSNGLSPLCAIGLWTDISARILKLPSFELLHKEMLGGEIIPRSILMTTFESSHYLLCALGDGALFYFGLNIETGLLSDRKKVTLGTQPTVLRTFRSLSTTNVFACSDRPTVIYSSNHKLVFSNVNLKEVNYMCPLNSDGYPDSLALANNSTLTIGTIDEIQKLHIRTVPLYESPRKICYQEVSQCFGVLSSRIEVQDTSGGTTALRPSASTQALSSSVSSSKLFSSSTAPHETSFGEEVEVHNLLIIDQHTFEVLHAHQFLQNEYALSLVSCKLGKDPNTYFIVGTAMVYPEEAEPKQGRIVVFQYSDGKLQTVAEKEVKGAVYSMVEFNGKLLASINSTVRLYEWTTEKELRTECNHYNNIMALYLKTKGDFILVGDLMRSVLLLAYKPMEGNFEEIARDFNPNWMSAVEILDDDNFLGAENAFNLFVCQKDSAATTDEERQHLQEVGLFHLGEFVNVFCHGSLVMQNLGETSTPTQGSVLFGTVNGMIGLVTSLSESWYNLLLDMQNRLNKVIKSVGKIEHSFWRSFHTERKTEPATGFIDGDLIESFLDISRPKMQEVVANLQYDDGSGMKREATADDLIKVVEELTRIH
Outline: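 Percentage degradation of Cyclin D1 and CDK4 derived from densitometry of ECL Western blots on lysates of Calu-1 cells. Treatment was 16 h with compound at either 40 nM or 200 nM.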

Calu-1 cells = test: Anti-proliferation (viability) of NSCLC Calu-1 cells, 3 days (Table 7, FIG. 2B); conditions: Homo sapiens, 72 h; Calu-1 cells, 3 days, 10-point serial dilution; read-out: GI IC50 in Calu-1
Outline: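 Viability is read after treatment with compounds titrated over ten serial dilution points, with exposure lasting three days for the NSCLC line and six days for the breast cancer line.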

T47D cells = test: Anti-proliferation (viability) of ER+ breast cancer T47D cells, 6 days (Table 7, FIG. 2B); conditions: Homo sapiens, 144 h; T47D cells, 6 days, 10-point serial dilution; read-out: GI IC50 in T47D
Protocol: To evaluate anti-proliferation activities of heterobifunctional compounds, NSCLC Calu-1 or ER+ breast cancer T47D cells were treated with selected heterobifunctional compounds following a 10-point serial dilution for 3 or 6 days, respectively.
To verify that heterobifunctional compound-mediated degradation is dependent on the binding to CDK4-cyclin D complex, a negative control compound, CPD-143, which is derived from active heterobifunctional compound CPD-10 was designed. CPD-143 bears the same DDB1 ligand and linker as CPD-10 but with a modified warhead to impair the binding of the control compound to CDK4.

| IC50 (MCF7 cells) [nM] | inhibition at 0.04 µM (CDK4) [%] | inhibition at 0.2 µM (CDK4) [%] | IC50 (Calu-1 cells) [nM] | IC50 (T47D cells) [nM] | Structure (SMILES) |
| --- | --- | --- | --- | --- | --- |
| > 100 | 50 to 80 | > 80 | 10 to 50 | ≥ 100 | CNc1ccc(C(=O)Nc2ccc(N(C)C)nn2)c(Nc2cnn(CCNC(=O)CN3CCN(c4ccc(Nc5ncc6c(C)c(C(C)=O)c(=O)n(C7CCCC7)c6n5)nc4)CC3)c2)n1 [CPD-24, 2-((1-(2-(2-(4-(6-((6-Acetyl-8-cyclopentyl-5-methyl-7-oxo-7,8-dihydropyrido[2,3-d]pyrimidin-2-yl)amino)pyridin-3-yl)piperazin-1-yl)acetamido)ethyl)-1H-pyrazol-4-yl)amino)-N-(6-(dimethylamino)pyridazin-3-yl)-6-(methylamino)nicotinamide] |
| > 100 | 50 to 80 | 50 to 80 | 10 to 50 | 50 to 100 | CNc1ccc(C(=O)Nc2ccc(N(C)C)nn2)c(Nc2cc(CCNC(=O)CN3CCN(c4ccc(Nc5ncc6c(C)c(C(C)=O)c(=O)n(C7CCCC7)c6n5)nc4)CC3)no2)n1 [CPD-26, 2-((3-(2-(2-(4-(6-((6-Acetyl-8-cyclopentyl-5-methyl-7-oxo-7,8-dihydropyrido[2,3-d]pyrimidin-2-yl)amino)pyridin-3-yl)piperazin-1-yl)acetamido)ethyl)isoxazol-5-yl)amino)-N-(6-(dimethylamino)pyridazin-3-yl)-6-(methylamino)nicotinamide] |
| > 100 | 50 to 80 | > 80 | 10 to 50 | 50 to 100 | CNc1ccc(C(=O)Nc2ccc(N(C)C)nn2)c(NCCCCn2cc(CN3CCN(c4ccc(Nc5ncc6c(C)c(C(C)=O)c(=O)n(C7CCCC7)c6n5)nc4)CC3)nn2)n1 [CPD-30, 2-((4-(4-((4-(6-((6-Acetyl-8-cyclopentyl-5-methyl-7-oxo-7,8-dihydropyrido[2,3-d]pyrimidin-2-yl)amino)pyridin-3-yl)piperazin-1-yl)methyl)-1H-1,2,3-triazol-1-yl)butyl)amino)-N-(6-(dimethylamino)pyridazin-3-yl)-6-(methylamino)nicotinamide] |
| > 100 | > 80 | > 80 | ≤ 10 | 50 to 100 | CNc1ccc(C(=O)Nc2cccc(C3CC3)n2)c(NC2CC3(C2)CN(C(=O)CCN2CCN(c4ccc(Nc5ncc6c(C)c(C(C)=O)c(=O)n(C7CCCC7)c6n5)nc4)CC2)C3)n1 [CPD-103, 2-((2-(3-(4-(6-((6-Acetyl-8-cyclopentyl-5-methyl-7-oxo-7,8-dihydropyrido[2,3-d]pyrimidin-2-yl)amino)pyridin-3-yl)piperazin-1-yl)propanoyl)-2-azaspiro[3.3]heptan-6-yl)amino)-N-(6-cyclopropylpyridin-2-yl)-6-(methylamino)nicotinamide] |
| < 50 | 50 to 80 | – | ≤ 10 | ≤ 50 | CNc1ccc(C(=O)Nc2ccc(N(C)C)nn2)c(NCCCCCNC(=O)CN2CCN(c3ccc(Nc4ncc5c(C)c(C(C)=O)c(=O)n(C6CCCC6)c5n4)nc3)CC2)n1 [CPD-5, 2-((5-(2-(4-(6-((6-acetyl-8-cyclopentyl-5-methyl-7-oxo-7,8-dihydropyrido[2,3-d]pyrimidin-2-yl)amino)pyridin-3-yl)piperazin-1-yl)acetamido)pentyl)amino)-N-(6-(dimethylamino)pyridazin-3-yl)-6-(methylamino)nicotinamide] |
| < 50 | > 80 | > 80 | ≤ 10 | ≤ 50 | CNc1ccc(C(=O)Nc2ccc(N(C)C)nn2)c(NC2CC3(C2)CN(C(=O)CCN2CCN(c4ccc(Nc5ncc6c(C)c(C(C)=O)c(=O)n(C7CCCC7)c6n5)nc4)CC2)C3)n1 [CPD-62, 2-((2-(3-(4-(6-((6-Acetyl-8-cyclopentyl-5-methyl-7-oxo-7,8-dihydropyrido[2,3-d]pyrimidin-2-yl)amino)pyridin-3-yl)piperazin-1-yl)propanoyl)-2-azaspiro[3.3]heptan-6-yl)amino)-N-(6-(dimethylamino)pyridazin-3-yl)-6-(methylamino)nicotinamide] |
